Measured values published in ChEMBL document CHEMBL5725665, “Pyrazolopyridines and pyrazolopyrimidines” (2018).

Legend:
[1] = target: Non-receptor tyrosine-protein kinase TYK2 (Homo sapiens, UniProt P29597); experiment: (§1) JAK Caliper Enzyme Assay at 1 mM ATP: Test article was solubilized in dimethyl sulfoxide (DMSO) to a stock concentration of 30 mM. An 11-point half log dilution series was created in DMSO with a top concentration of 600 μM. […] The compound plates were diluted 1 to 60 resulting in a top final assay compound concentration of 10 μM and a 2% DMSO concentration.Test article and assay controls were added to a 384-well plate. Reaction mixtures contained 20 mM HEPES, pH 7.4, 10 mM magnesium chloride, 0.01% bovine serum albumin (BSA), 0.0005% Tween 20, 1 mM ATP and 1 μM peptide substrate. The JAK1 and TYK2 assays contained 1 μM of the IRStide peptide (5FAM-[…]) and the JAK2 and JAK3 assays contained 1 μM of the JAKtide peptide (FITC-[…]). […] Enzyme concentrations and incubation times were optimized for each new enzyme preps and were modified slightly over time to ensure 20%-30% phosphorylation. The assays were stopped with a final concentration of 10 mM EDTA, 0.1% Coating Reagent and 100 mM HEPES, pH=7.4. The assay plates were placed on a Caliper Life Science Lab Chip 3000 (LC3000) instrument, and each well was sampled using appropriate separation conditions to measure the unphosphorylated and phosphorylated peptide.
[2] = target: T1, Tyrosine-protein kinase JAK3 (Homo sapiens, UniProt P52333); experiment: as §1
T1 sequence (P52333 whole entry): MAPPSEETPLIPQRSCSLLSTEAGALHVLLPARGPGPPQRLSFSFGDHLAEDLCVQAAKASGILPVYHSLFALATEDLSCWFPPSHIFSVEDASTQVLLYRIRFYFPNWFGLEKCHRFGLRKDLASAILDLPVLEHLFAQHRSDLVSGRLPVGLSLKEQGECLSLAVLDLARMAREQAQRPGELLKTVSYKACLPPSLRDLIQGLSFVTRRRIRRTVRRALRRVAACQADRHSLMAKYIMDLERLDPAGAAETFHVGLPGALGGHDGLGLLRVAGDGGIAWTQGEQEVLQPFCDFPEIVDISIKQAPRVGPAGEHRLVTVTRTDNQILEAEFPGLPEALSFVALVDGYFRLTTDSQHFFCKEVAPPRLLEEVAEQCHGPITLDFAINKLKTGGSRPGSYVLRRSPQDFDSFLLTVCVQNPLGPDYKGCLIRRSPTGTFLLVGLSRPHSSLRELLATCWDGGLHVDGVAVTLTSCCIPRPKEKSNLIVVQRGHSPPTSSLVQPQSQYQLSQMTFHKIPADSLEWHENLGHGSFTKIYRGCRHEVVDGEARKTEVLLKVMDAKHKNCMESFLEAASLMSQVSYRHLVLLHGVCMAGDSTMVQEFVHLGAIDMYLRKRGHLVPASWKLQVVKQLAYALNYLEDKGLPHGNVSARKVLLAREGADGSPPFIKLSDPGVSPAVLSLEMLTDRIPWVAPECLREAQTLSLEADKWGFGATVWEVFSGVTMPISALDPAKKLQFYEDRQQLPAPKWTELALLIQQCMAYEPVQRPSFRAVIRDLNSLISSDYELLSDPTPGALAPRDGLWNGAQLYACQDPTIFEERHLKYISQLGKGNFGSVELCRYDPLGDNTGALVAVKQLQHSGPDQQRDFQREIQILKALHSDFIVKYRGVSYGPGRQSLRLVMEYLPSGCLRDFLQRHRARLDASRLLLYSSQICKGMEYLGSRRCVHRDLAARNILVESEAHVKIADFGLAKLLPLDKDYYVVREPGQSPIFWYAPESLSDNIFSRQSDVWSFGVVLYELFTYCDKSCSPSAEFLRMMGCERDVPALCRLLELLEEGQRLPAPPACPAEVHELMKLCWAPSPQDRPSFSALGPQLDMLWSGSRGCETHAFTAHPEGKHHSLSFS

[3] = target: Tyrosine-protein kinase JAK1 (Homo sapiens, UniProt P23458); experiment: as §1
[4] = target: Tyrosine-protein kinase JAK2 (Homo sapiens, UniProt O60674); experiment: JAK Caliper Enzyme Assay at 1 mM ATP: Test article was solubilized in dimethyl sulfoxide (DMSO) to a stock concentration of 30 mM. An 11-point half log dilution series was created in DMSO with a top concentration of 600 μM. […] The compound plates were diluted 1 to 60 resulting in a top final assay compound concentration of 10 μM and a 2% DMSO concentration.Test article and assay controls were added to a 384-well plate. Reaction mixtures contained 20 mM HEPES, pH 7.4, 10 mM magnesium chloride, 0.01% bovine serum albumin (BSA), 0.0005% Tween 20, 1 mM ATP and 1 μM peptide substrate. […] Enzyme concentrations and incubation times were optimized for each new enzyme preps and were modified slightly over time to ensure 20%-30% phosphorylation. The assays were stopped with a final concentration of 10 mM EDTA, 0.1% Coating Reagent and 100 mM HEPES, pH=7.4. The assay plates were placed on a Caliper Life Science Lab Chip 3000 (LC3000) instrument, and each well was sampled using appropriate separation conditions to measure the unphosphorylated and phosphorylated peptide.
Sequence of Tyrosine-protein kinase JAK2 (O60674 whole entry): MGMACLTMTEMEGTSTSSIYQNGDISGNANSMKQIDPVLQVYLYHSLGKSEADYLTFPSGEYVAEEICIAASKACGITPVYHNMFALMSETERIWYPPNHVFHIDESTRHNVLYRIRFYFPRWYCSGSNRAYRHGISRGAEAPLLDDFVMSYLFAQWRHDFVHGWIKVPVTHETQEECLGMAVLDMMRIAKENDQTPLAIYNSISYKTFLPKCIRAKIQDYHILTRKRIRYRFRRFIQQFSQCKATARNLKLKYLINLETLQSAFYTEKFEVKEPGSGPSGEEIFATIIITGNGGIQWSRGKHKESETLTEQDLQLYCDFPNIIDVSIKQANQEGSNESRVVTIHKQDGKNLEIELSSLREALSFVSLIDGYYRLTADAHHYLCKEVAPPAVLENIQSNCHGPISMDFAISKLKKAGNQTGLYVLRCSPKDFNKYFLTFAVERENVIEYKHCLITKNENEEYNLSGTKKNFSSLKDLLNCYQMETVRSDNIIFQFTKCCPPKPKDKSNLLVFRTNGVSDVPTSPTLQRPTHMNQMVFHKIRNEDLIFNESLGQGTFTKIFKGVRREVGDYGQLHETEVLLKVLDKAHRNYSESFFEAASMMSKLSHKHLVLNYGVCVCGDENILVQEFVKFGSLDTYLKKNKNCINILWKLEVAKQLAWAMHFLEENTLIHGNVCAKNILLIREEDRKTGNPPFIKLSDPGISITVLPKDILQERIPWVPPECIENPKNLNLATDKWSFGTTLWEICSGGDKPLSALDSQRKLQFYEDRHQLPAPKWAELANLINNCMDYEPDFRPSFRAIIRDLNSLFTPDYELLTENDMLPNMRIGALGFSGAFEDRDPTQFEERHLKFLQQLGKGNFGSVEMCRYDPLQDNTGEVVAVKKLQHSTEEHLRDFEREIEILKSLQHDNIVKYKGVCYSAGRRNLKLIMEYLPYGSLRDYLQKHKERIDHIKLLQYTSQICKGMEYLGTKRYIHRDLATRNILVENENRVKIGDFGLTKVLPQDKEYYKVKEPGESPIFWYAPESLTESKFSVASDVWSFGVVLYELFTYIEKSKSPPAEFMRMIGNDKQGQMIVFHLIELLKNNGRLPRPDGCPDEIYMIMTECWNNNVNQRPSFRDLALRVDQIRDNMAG

Sequence of Tyrosine-protein kinase JAK1 (P23458 whole entry): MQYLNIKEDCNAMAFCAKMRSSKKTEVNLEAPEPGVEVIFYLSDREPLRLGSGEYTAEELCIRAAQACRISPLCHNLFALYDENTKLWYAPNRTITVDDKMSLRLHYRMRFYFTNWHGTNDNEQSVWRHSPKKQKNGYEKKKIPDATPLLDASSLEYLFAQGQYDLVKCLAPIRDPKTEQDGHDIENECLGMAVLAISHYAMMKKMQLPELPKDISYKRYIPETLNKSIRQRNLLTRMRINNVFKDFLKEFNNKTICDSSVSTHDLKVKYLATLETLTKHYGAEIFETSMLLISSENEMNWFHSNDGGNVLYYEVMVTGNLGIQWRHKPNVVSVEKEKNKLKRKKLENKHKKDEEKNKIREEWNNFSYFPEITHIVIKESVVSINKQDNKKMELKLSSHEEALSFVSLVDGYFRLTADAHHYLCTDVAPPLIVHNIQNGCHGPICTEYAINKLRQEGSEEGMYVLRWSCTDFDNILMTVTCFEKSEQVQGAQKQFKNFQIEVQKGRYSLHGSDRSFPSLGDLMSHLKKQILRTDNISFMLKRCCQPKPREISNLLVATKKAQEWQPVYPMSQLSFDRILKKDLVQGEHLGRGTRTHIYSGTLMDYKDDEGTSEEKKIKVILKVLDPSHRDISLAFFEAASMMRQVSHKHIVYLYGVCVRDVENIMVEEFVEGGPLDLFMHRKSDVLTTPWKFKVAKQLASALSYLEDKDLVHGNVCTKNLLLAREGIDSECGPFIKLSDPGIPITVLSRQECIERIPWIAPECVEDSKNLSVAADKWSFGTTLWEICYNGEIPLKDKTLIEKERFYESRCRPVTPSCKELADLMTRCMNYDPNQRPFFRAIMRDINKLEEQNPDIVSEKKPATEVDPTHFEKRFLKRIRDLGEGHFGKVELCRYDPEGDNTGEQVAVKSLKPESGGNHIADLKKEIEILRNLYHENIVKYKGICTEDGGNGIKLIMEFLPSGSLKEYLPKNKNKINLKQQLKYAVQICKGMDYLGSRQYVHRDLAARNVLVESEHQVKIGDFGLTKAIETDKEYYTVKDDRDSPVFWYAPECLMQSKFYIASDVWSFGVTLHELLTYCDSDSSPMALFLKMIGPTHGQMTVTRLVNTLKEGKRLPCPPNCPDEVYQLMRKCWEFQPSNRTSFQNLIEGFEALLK
Sequence of Non-receptor tyrosine-protein kinase TYK2 (P29597 whole entry): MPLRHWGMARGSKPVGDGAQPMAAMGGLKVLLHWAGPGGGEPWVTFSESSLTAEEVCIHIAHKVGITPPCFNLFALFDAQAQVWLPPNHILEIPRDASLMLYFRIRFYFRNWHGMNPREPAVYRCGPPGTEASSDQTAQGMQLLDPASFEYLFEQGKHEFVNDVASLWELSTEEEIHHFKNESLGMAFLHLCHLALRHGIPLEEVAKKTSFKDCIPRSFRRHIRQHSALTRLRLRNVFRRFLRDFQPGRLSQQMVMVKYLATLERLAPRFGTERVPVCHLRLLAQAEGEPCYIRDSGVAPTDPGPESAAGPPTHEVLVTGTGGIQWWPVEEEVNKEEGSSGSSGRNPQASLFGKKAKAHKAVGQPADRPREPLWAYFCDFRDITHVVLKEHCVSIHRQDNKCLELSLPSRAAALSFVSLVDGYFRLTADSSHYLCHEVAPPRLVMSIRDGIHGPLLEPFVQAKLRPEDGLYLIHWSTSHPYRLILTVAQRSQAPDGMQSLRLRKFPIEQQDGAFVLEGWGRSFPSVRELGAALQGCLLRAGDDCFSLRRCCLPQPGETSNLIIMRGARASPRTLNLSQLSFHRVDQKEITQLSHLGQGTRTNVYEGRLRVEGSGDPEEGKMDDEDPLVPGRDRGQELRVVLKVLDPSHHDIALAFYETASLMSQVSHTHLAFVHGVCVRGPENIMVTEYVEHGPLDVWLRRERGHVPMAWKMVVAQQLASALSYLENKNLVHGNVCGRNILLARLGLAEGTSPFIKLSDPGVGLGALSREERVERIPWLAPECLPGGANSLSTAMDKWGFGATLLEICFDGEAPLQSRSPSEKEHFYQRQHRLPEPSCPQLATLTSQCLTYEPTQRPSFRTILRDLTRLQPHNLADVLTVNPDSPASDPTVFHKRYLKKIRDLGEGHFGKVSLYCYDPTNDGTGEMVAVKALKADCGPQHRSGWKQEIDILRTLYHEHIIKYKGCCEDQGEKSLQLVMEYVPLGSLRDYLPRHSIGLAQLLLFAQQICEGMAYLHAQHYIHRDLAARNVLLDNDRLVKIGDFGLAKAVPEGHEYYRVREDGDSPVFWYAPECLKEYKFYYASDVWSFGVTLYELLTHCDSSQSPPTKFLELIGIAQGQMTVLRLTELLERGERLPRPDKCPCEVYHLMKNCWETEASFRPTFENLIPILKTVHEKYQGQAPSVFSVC

SMILES	IC50 [1] [µM]	IC50 [2] [µM]	IC50 [3] [µM]	IC50 [4] [µM]
CN(c1ccc(O)cc1CNc1nc(-c2cc(F)c(O)cc2CC(F)(F)F)nc2[nH]nc(C(N)=O)c12)S(C)(=O)=O	0.373	0.038	0.0032	0.0127
CS(=O)(=O)N(CCO)c1ccccc1CNc1nc(-c2cc(F)c(O)cc2CC(F)(F)F)cc2[nH]nc(C(N)=O)c12	0.0488	0.0535	0.0029	0.0147
CN(c1ccc(O)cc1CNc1nc(-c2cc(F)c(O)cc2CC(F)(F)F)nc2[nH]nc(-c3nc4c([nH]3)CCNC4)c12)S(C)(=O)=O	0.0686	0.111	0.0056	0.0353
CCc1cc(O)ccc1-c1cc2[nH]ncc2c(NCCc2ccc(-c3ccccc3)cc2)n1	4.23	0.157	0.0876	0.183
CN(c1ccccc1CNc1nc(-c2cc(F)c(O)cc2CC(F)(F)F)nc2[nH]nc(-c3nnc(C4CCN(C(=O)CN5CCCC5)CC4)[nH]3)c12)S(C)(=O)=O	2.26	0.158	0.0168	0.0543
Cc1nnc(-c2n[nH]c3cc(-c4cc(F)c(O)cc4CC(F)(F)F)nc(NCc4ccccc4N(C)S(C)(=O)=O)c23)[nH]1	0.15	0.429	0.0275	0.129
CCc1cc(O)ccc1-c1cc2[nH]ncc2c(N2CC(Oc3ccccc3)C2)n1	5.17	0.0675	0.0121	0.0829
